Source: BigSolDB 2.1

Work on `COc1cc(N)nc(OC)n1` yielded a solubility (mole fraction) (in DMF, 283.15 K) of 0.055, a solubility (mole fraction) (in DMF, 288.15 K) of 0.0726 and a solubility (mole fraction) (in DMF, 293.15 K) of 0.0949. It also gave a solubility (mole fraction) (in DMF, 298.15 K) of 0.123, a solubility (mole fraction) (in DMF, 303.15 K) of 0.158 and a solubility (mole fraction) (in DMF, 308.15 K) of 0.201. The solubility (mole fraction) (in DMF, 313.15 K) was 0.254, the solubility (mole fraction) (in DMF, 318.15 K) was 0.319 and the solubility (mole fraction) (in DMF, 323.15 K) was 0.397. For the same molecule, the solubility (mole fraction) (in ethanol, 283.15 K) was 0.0101, the solubility (mole fraction) (in ethanol, 288.15 K) was 0.013 and the solubility (mole fraction) (in ethanol, 293.15 K) was 0.0164. The solubility (mole fraction) (in ethanol, 298.15 K) was 0.0205, the solubility (mole fraction) (in ethanol, 303.15 K) was 0.0253 and the solubility (mole fraction) (in ethanol, 308.15 K) was 0.0313. For the same molecule, the solubility (mole fraction) (in ethanol, 313.15 K) was 0.0383, the solubility (mole fraction) (in ethanol, 318.15 K) was 0.0463 and the solubility (mole fraction) (in ethanol, 323.15 K) was 0.0561. For the same molecule, the solubility (mole fraction) (in isopropanol, 283.15 K) was 0.00553, the solubility (mole fraction) (in isopropanol, 288.15 K) was 0.00742 and the solubility (mole fraction) (in isopropanol, 293.15 K) was 0.0101. The solubility (mole fraction) (in isopropanol, 298.15 K) was 0.0133, the solubility (mole fraction) (in isopropanol, 303.15 K) was 0.0175 and the solubility (mole fraction) (in isopropanol, 308.15 K) was 0.023. The solubility (mole fraction) (in isopropanol, 313.15 K) was 0.0297, the solubility (mole fraction) (in isopropanol, 318.15 K) was 0.038 and the solubility (mole fraction) (in isopropanol, 323.15 K) was 0.0484. For the same molecule, the solubility (mole fraction) (in methanol, 283.15 K) was 0.0181, the solubility (mole fraction) (in methanol, 288.15 K) was 0.0214 and the solubility (mole fraction) (in methanol, 293.15 K) was 0.0254. The solubility (mole fraction) (in methanol, 298.15 K) was 0.0301, the solubility (mole fraction) (in methanol, 303.15 K) was 0.0352 and the solubility (mole fraction) (in methanol, 308.15 K) was 0.0414. The solubility (mole fraction) (in methanol, 313.15 K) was 0.0482, the solubility (mole fraction) (in methanol, 318.15 K) was 0.0559 and the solubility (mole fraction) (in methanol, 323.15 K) was 0.0643. For the same molecule, the solubility (mole fraction) (in water, 283.15 K) was 0.000298, the solubility (mole fraction) (in water, 288.15 K) was 0.000347 and the solubility (mole fraction) (in water, 293.15 K) was 0.000405. The solubility (mole fraction) (in water, 298.15 K) was 0.000464, the solubility (mole fraction) (in water, 303.15 K) was 0.000534 and the solubility (mole fraction) (in water, 308.15 K) was 0.000614. The solubility (mole fraction) (in water, 313.15 K) was 0.000695, the solubility (mole fraction) (in water, 318.15 K) was 0.000788 and the solubility (mole fraction) (in water, 323.15 K) was 0.000897.
